Data taken from patent US20170280720A1, “ARGININE […] INHIBITORS AND USES THEREOF” (EPIZYME, INC., priority 2014, published 2017).

Columns and labels:
[1] = biological target: T1, Human CARM1 (PRMT4) (Homo sapiens, UniProt Q86X55); assay: CARM1 biochemical assay (3H-SAM Flashplate, peptide substrate); conditions: read-out: CARM1_ IC50
T1 construct: Flag-CARM1-His; made in house; host or cells: HEK 293F cells (BacMam baculovirus, pFastBacMam)
T1 sequence (Q86X55 2-585 isoform Q86X55-1): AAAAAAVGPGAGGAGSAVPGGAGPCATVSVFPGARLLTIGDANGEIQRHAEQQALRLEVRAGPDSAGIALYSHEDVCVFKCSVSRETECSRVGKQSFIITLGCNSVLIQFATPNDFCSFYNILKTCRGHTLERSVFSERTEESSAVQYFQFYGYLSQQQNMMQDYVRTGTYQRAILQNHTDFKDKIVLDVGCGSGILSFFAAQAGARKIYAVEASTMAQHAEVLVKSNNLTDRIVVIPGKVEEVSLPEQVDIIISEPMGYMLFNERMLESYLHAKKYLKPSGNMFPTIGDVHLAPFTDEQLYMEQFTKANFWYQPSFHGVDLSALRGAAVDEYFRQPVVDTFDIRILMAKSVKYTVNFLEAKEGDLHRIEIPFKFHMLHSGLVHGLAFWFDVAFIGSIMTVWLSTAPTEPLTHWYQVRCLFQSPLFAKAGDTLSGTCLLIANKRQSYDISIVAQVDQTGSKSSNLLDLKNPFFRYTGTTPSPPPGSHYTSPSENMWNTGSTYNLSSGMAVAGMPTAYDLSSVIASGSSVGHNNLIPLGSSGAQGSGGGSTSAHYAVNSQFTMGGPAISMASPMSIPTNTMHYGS
How it was run: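 FLAG/His-tagged human CARM1 (isoform 1, Δ539-561, baculovirus-expressed), 0.25 nM, preincubated 30 min at room temperature with compound (2% DMSO) in 20 mM Bicine pH 7.6, then reacted with 30 nM 3H-SAM and 250 nM biotinylated H3 16-30 peptide (R26 monomethyl). Stopped with 300 uM cold SAM; labelled peptide captured on streptavidin Flashplate; % inhibition versus DMSO and 1 mM SAH controls fitted to a 4- or 3-parameter curve.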

[2] = biological target: PRMT5 (Homo sapiens, UniProt O14744); assay: PRMT5 IC50 (Table 2; no method described); assay type: biochemical; conditions: read-out: PRMT5_ IC50
Sequence of PRMT5 (O14744 whole entry, species assumed): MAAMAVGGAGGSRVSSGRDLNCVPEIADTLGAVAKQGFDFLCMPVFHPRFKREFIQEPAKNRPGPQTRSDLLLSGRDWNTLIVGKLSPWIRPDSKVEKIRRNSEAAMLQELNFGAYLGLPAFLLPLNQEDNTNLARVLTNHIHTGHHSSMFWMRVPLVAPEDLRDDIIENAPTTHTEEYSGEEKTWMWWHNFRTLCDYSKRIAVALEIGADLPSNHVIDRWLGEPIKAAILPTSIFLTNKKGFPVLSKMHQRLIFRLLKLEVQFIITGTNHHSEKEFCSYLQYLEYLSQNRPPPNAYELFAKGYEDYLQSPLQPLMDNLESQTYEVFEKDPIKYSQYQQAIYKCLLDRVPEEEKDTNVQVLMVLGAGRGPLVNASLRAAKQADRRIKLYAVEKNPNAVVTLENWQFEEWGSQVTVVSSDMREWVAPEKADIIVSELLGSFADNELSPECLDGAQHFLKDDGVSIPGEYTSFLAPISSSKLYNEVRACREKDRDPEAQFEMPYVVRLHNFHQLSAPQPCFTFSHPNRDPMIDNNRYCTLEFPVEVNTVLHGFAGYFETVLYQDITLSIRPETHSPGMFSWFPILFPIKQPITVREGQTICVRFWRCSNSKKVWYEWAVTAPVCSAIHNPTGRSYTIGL
Sequence of PRMT5 (Q9BQA1 whole entry partner, species assumed): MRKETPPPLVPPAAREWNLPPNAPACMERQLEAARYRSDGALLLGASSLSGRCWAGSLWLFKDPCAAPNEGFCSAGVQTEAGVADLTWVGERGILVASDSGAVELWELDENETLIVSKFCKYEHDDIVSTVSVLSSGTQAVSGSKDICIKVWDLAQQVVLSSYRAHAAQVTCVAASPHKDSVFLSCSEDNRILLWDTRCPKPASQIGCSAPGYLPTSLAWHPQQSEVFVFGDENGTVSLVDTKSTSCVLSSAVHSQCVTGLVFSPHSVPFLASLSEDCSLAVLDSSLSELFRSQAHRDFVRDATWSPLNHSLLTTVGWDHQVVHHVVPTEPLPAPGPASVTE

SMILES	IC50 [1] [nM]	IC50 [2] [µM]
CNCCN(C)Cc1cccc(-c2nc(NCc3nccs3)c3cnn(C4CC4)c3n2)c1 [Compound 2]	16.8	–
CNCCN(C)Cc1cccc(-c2nc(C(=O)NCc3cn4ccsc4n3)c3cnn(C4CC4)c3n2)c1 [Compound 180]	8.9	200
CNCCN(C)Cc1cccc(-c2cc(C(=O)NCc3ccncc3)c3cnn(C(C)C)c3n2)c1 [Compound 182]	10.3	12.1
CC(C)n1ncc2c(C(=O)N(C)CC3CCOCC3)cc(-c3cccc(CN(C)CCN)c3)nc21 [Compound 256]	63.1	50
CN(CCN)Cc1cccc(-c2ccc(C(=O)NCC3CCOCC3)c(N(C)CC3CC3)c2)c1 [Compound 263]	72.2	7.73
CNCCN(C)Cc1cccc(-c2cc(C(=O)N(C)Cc3ccccn3)c3cnn(C(C)C)c3n2)c1 [Compound 300]	205	34.3
Cc1cc(C)c(CNC(=O)c2cc(-c3ccc(CNCCN(C)C)cc3)nc3c2cnn3C(C)C)c(=O)[nH]1 [Compound 359]	50000	–
Cc1cc(C)c(CNC(=O)c2cc(-c3cccc(CN(C)CCN)c3)nc3c2cnn3C(C)C)c(=O)[nH]1 [Compound 360]	19.5	15.4
Cc1cc(C)c(CNC(=O)c2cc(-c3cccc(CN(C)CCN(C)C)c3)nc3c2cnn3C(C)C)c(=O)[nH]1 [Compound 361]	254	–
CNCCN(C)Cc1ccc(-c2cc(C(=O)NCc3c(C)cc(C)[nH]c3=O)c(C)c3n[nH]cc23)cc1 [Compound 362]	1980	–
Cc1cc(C)c(CNC(=O)c2cc(-c3cccc(CNCCN)c3)nc3c2cnn3C(C)C)c(=O)[nH]1 [Compound 365]	14.4	49
Cc1cc(C)c(CNC(=O)c2cc(-c3cccc(CNCCN)c3)cc3[nH]ncc23)c(=O)[nH]1 [Compound 366]	1390	4.2
CNCCN(C)Cc1cccc(-c2cc(C(=O)NCc3c(C)cc(C)[nH]c3=O)c3cnn(C(C)C)c3c2)c1 [Compound 367]	184	–
CNCCN(C)Cc1cccc(-c2cc(C(=O)NCc3c(C)cc(C)[nH]c3=O)c3cnn(C(C)C)c3n2)c1 [Compound 368]	6.11	–
CNCCN(C)Cc1ccc(-c2cc(C(=O)NCc3c(C)cc(C)[nH]c3=O)c(C)c3nn(C4CCCC4)cc23)cc1 [Compound 370]	7260	–
Cc1cc(C)c(CNC(=O)c2cc(CNCCN(C)C)cc3c2cnn3C2CCCC2)c(=O)[nH]1 [Compound 371]	28300	–
CNCCN(C)Cc1cccc(-c2cc(C(=O)NCc3c(C)cc(C)[nH]c3=O)c(C)c3[nH]ncc23)c1 [Compound 372]	4310	–
CNCCN(C)Cc1ccc(-c2cncc(C(=O)NCc3c(C)cc(C)[nH]c3=O)c2)cc1 [Compound 373]	5770	14.7
Cc1cc(C)c(CNC(=O)c2cncc(-c3ccc(CN(C)CCN)cc3)c2)c(=O)[nH]1 [Compound 374]	9830	44.3
Cc1cc(C)c(CNC(=O)c2cncc(-c3ccc(CN(C)CCN(C)C)cc3)c2)c(=O)[nH]1 [Compound 378]	19600	66.6
Cc1cc(C)c(CNC(=O)c2cncc(-c3ccc(CNCCN)cc3)c2)c(=O)[nH]1 [Compound 379]	6570	2.12
CNCCN(C)Cc1cccc(-c2cc(C(=O)NCCCCCC(=O)NCc3c(C)cc(C)[nH]c3=O)c3cnn(C(C)C)c3n2)c1 [Compound 382]	9.01	–
CNCCN(C)Cc1cccc(-c2cc(C(=O)NCCCC(=O)NCc3c(C)cc(C)[nH]c3=O)c3cnn(C(C)C)c3n2)c1 [Compound 383]	8.39	–
CNCCN(C)Cc1cccc(-c2cc(C(=O)NCCC(=O)NCc3c(C)cc(C)[nH]c3=O)c3cnn(C(C)C)c3n2)c1 [Compound 384]	18.8	–
CNCCN(C)Cc1cccc(-c2cc(C(=O)NCCCCC(=O)NCc3c(C)cc(C)[nH]c3=O)c3cnn(C(C)C)c3n2)c1 [Compound 385]	7.11	–
COc1nc(C)cc(C)c1CNC(=O)c1cc(-c2cccc(CN(C)CCN(C)C)c2)nc2c1cnn2C(C)C [Compound 386]	209	–
COc1nc(C)cc(C)c1CNC(=O)c1cc(-c2cccc(CNCCN)c2)nc2c1cnn2C(C)C [Compound 391]	141	30.5
